Measurements taken from publication PMC8279484 (Journal of Medicinal Chemistry, 2021).

How the values were obtained:
[1] = system: THP-1 LUCIA monocytes; experiment: In vitro safety study: Safety index (Si), activity versus toxicity; assay type: cell-based, human; conditions: for IC50: Homo sapiens, THP-1, highest IC50 among the LPS-challenged assays (NF-κB activity, cytokine, LDH release), read-out: Extrinsic Activity hIC50; for Safety Index TC50/IC50: ratio of intrinsic TC50 to extrinsic hIC50
Description: A postanalysis “safety study” was conducted on all QNX-sLXms. For each tested compound, we calculated an in vitro “Safety index” (Si) by relating its “anti-inflammatory half-maximal activity” (the highest dose among the IC50 of the extrinsic LPS-challenged phenotype: NF-κB activity, proinflammatory cytokine, and LDH release) to its intrinsic “toxicity” (expressed as the relative half-maximal LDH-associated cytotoxicity). The generated Si is potentially predictive of a translational “therapeutic” range: the higher the Si, the safer the molecule is. As summarized in Table S4, Si values from all tested compounds fall in a broad range (7–50).

[2] = system: THP-1 LUCIA monocytes; experiment: Intrinsic cytotoxicity: LDH release without LPS; assay type: cell-based, human; conditions: for Intrinsic Toxicity Level: LDH-associated level of cytotoxicity (high / moderate / low); for Intrinsic Toxicity TC50 (pM): half-maximal intrinsic LDH-associated toxic activity, no LPS
Description: We investigated the potential cytotoxicity of all candidate sLXms by assaying LDH release.[50] The response to LPS was arbitrarily set to 100%, and values were expressed relative to this. As previously reported by others, LPS provokes LDH release.[51] […] Ultimately, untreated cells defined the spontaneous cell release thresholds.
Lactate dehydrogenase (LDH) was assayed in cell supernatants to investigate possible cytotoxicity of the lead compound. LDH is rapidly released into the culture medium after disruption of the plasma membrane.[67],[69] After 24 h of exposure to sLXms, vehicle, or controls, followed by LPS stimulation, as described above, THP-1-Lucia NF-κB-cell supernatants were collected and LDH was assayed. Cytotoxicity was evaluated relative to vehicle controls. Maximum releasable LDH was determined in cells lysed with 2% Triton-X-100 (Sigma-Aldrich, Ireland). LDH levels were assessed by reading the absorbance at 490 nm (protein) and 690 nm (background noise), using a spectrophotometer (SPECTRAMAX M2, Molecular Devices (U.K.) Limited).

[3] = system: NF-κB; experiment: LPS-induced NF-κB-driven luciferase gene reporter assay in THP-1 Lucia monocytes; assay type: cell-based, human; conditions: for Rel. Slope: HS relative to LXA4 (1); for IC50: Homo sapiens, THP-1, read-out: Potency IC50; for IC50 / IC50 (range in words): LPS 50 ng/mL; for Potency Rel. Pot.: IC50 relative to LXA4 (1); for Efficacy Rel. Eff.: Imax relative to LXA4 (1); for reduction of LPS-induced NF-κB-driven luciferase activity: approximate extent; for (Single component) Rel. Score: Rel. Pot. / (Single component) Rel. Score: Rel. Sl.: score relative to LXA4 (1); for (Aggregate) Rel. PD Score: sum of efficacy, potency, slope scores relative to LXA4 (1); for Slope HS (Hill–Slope): slope of concentration–response curve
Description: Mycoplasma-free THP-1-Lucia NF-κB cells were grown in an RPMI 1640 (Gibco) medium containing 2 mM L-glutamine, 1.50 g/L sodium bicarbonate, 4.50 g/L glucose, 10 mM N-(2-hydroxyethyl)piperazine-N′-ethanesulfonic acid (HEPES), and 1 mM sodium pyruvate. Then, 10% heat-inactivated fetal bovine serum (FBS) (30 min at 56 °C), 100 μg/mL Normocin, and Pen-Strep (50 U/mL to 50 μg/mL) were also added to the growth media. As THP-1-Lucia cells were resistant to Zeocin, the latter was used as a selective antibiotic (a high dose, i.e., 100 μg/mL, was alternated every 2 weeks with a low dose, i.e., 10 μg/mL).
LXA41 and all of the tested sLXms were dissolved in ethanol and further diluted in a culture medium (final ethanol concentration 0.1%; equivalent concentrations were used as the vehicle control). Prior to in vitro experiments, THP-1-Lucia NF-κB cells were harvested and plated at 1 × 10^5 cells/well on 96-well plates and left to settle in the incubator at 37 °C, 95% humidity, and 5% CO2, in 0.1% FBS-containing media, pretreated for 30 min with increasing doses of LXA41, sLXms (from 10^–12 to 10^–6 M), or appropriate controls, followed by stimulation with 50 ng/mL LPS for 24 h.
NFκB activity was monitored in the human THP-1 monocytic leukemia cell line containing a stably integrated NF-κB-inducible Lucia reporter construct (as previously reported).[21] When stimulated with LPS, the transcription factor NF-κB is activated, upregulating the synthesis of proinflammatory mediators, thus bringing about an inflammatory response. In these cells, NF-κB activation is linked to a […] luciferase gene and can be measured using luminescence.
Heat-killed listeria monocytogenes (HKLM) (10^8/mL) was used as a positive control.[28] The levels of NF-κB-induced Luciferase were then measured in a culture supernatant using QUANTI-Luc as the detection reagent, and measurements were taken on a bioluminescence reader.
After 24 h, the levels of NF-κB-induced Lucia were assayed in a cell culture supernatant using QUANTI-Luc, as a detection reagent, on a bioluminescence reader (Synergy HT, BioTek Instruments, Inc. Vermont). Aliquots of the supernatant were retained for subsequent cytokine and LDH assays. Cellular proteins were extracted with a radioimmunoprecipitation assay (RIPA) buffer (Thermo Fisher, Ireland), supplemented with protease inhibitors (Sigma-Aldrich, Ireland). Lysates were clarified by centrifugation (3200g, 10’, 4 °C) to remove cell debris, and the cell protein level was quantified by performing a bicinchoninic acid (BCA) assay (as per the manufacturer’s instructions) reading the protein absorbance at 570 nm, using a spectrophotometer (SPECTRAMAX M2, Molecular Devices (U.K.) Limited). A “relative luminescence unit” (RLU) was obtained using the average value of the lum/abs ratio of two replicates.
The “coding” of the heat-map indicates the arbitrary criteria to assign points to each single PD component (efficacy = Imax or Emax; potency = IC50 or EC50; slope = HS) to generate a final (aggregate) relative PD score. […] If a single PD component was equal to the reference level (x = 1), then the single-component relative score was arbitrarily set to 0 (gray). If a single PD component was smaller than the reference level (x < 1), then the single-component relative score was arbitrarily set to −1 (light red) or −2 (dark red). If the curve of a single PD component was best fitting to a flat line (x = 0), then the single-component relative score was arbitrarily set to −4 (purple) (Table S1).

[4] = system: THP-1-MF0 macrophage; experiment: Phagocytosis of fluorescent E. coli bioparticles by THP-1-MF0 macrophages; assay type: cell-based, human; conditions: for EC50: 30 min pretreatment, 2 h bioparticles, read-out: Potency EC50; for (Aggregate) Rel. PD Score / Potency Rel. Pot. / Single comp. score Rel Eff. / Single comp. score Rel. Pot.: relative to LXA4 (1)
Description: Mycoplasma-free THP-1 monocytes were grown in an RPMI 1640 (Gibco) medium containing 2 mM L-glutamine, 2.00 g/L sodium bicarbonate, and 2.00 g/L glucose. Then, 10% (v/v) heat-inactivated FBS (30 min at 56 °C) and Pen-Strep (100 U/mL to 100 μg/mL) were supplemented to the growth media.
Cell adherence was allowed for 1 h and 30 min at 37 °C/5% CO2. Cells were then treated for 30 min with controls and phagocytosis effectors for testing (vehicle, LXs, Rvs, or sLXms). Subsequently, media containing controls/effectors were vacuum-aspirated and replaced with a solution containing fluorescently prelabeled E. coli-derived bioparticles and cells were incubated in the dark for 2 h at 37 °C/5% CO2 to allow particle ingestion by monocytes/macrophages. After that, media containing bioparticles were vacuum-aspirated and replaced with a solution containing trypan blue and cells were incubated for 1 min at room temperature to allow quenching of unbound particles to ensure specificity of the fluorescent signal, deriving only from ingested particles (not shown). After aspiration of Trypan, the fluorescence reading was immediately performed at the following conditions: end point; reading from the bottom of the plate; Ex.480/Em.520 nm.

[5] = system: C57bl/6 mice; experiment: Murine carrageenan-induced paw edema; assay type: in vivo, mouse; conditions: for % relative to carageenan-induced level: Veh = 100; for % relative to carageenan-induced level / % reduction relative to carageenan-induced level: (R)-6, (R)-17 2 μg/kg, Naproxen 50 mg/kg p.o.; for Paw swelling Index: Mean: n = 3
Description: Then, 50 μL of 1% carrageenan was injected with an equivalent volume of saline injected into the contralateral paw. Inflammation was presented as the difference in paw thickness over time using gauge (POCO 2T; Kroeplin, GmbH, Surrey, U.K.). Data are presented as mean ± SEM, n = 3 mice/treatment group.

| Structure (SMILES) | IC50 [1] [pM] | Safety Index TC50/IC50 [1] | Intrinsic Toxicity TC50 (pM) [2] | Rel. Slope [3] | IC50 ([3]; 24 h) [pM] | Potency Rel. Pot. [3] | Efficacy Rel. Eff. [3] | reduction of LPS-induced NF-κB-driven luciferase activity ([3]; 1 pM–1 μM) | (Single component) Rel. Score: Rel. Pot. [3] | (Single component) Rel. Score: Rel. Sl. [3] | (Aggregate) Rel. PD Score [3] | (Aggregate) Rel. PD Score [4] | Potency Rel. Pot. [4] | other results |
| --- | --- | --- | --- | --- | --- | --- | --- | --- | --- | --- | --- | --- | --- | --- |
| CCC[C@@H](O)c1nc2ccccc2nc1/C=C/[C@@H](O)[C@@H](O)CCCC(=O)OC [(R)-7, Methyl (5S,6R,E)-5,6-Dihydroxy-8-(3-((R)-1-hydroxybutyl)quinoxalin-2-yl)oct-7-enoate] | 100 | 20 | 2,000 pM | 0.55 | 4000 | 0.015 | 1.21 | 30–35% | -2 (x < 0.1) | -1 (0.01 < x < 1) | -2 |  |  | Intrinsic Toxicity Level [2]: Low-Mod.; intrinsic LDH release versus vehicle / spontaneous cell release ([2]; absence of LPS, 24 h, controls Dex 1 μM, 2 1 pM, 5 1 pM): lower than the vehicle; IC50 (range in words) ([3]; 24 h): “nM” range |
| CCC[C@H](O)c1nc2ccccc2nc1/C=C/[C@@H](O)[C@@H](O)CCCC(=O)OC [(S)-7, Methyl (5S,6R,E)-5,6-Dihydroxy-8-(3-((S)-1-hydroxybutyl)quinoxalin-2-yl)oct-7-enoate] | 15000 | 7 | 110,000 pM | 0.60 | 1000 | 0.1 | 1.50 | 30–35% | -2 (x < 0.1) | -1 (0.01 < x < 1) | -1 |  |  | Intrinsic Toxicity Level [2]: Low-Mod.; IC50 (range in words) ([3]; 24 h): “nM” range; Slope HS (Hill–Slope) [3]: -6 |
| CCCCC[C@H](O)c1nc2ccccc2nc1/C=C/[C@H]1OC(C)(C)O[C@H]1CCCC(=O)OC [(S)-17, Methyl 4-((4S,5R)-5-((E)-2-(3-((S)-1-Hydroxyhexyl)quinoxalin-2-yl)vinyl)-2,2-dimethyl-1,3-dioxolan-4-yl)butanoate] | 3 | 33 | 100 pM | 0 | 3 | 24 | 0.79 | least effective | 2 (x ≥ 5) | -4 (x = 0) | -3 |  |  | Imax (%) ([3]; maximal % inhibition of LPS (50 ng/mL)-stimulated NF-κB luciferase activity, 30 min pretreatment, 24 h, 1 pM–1 μM): 19 ± 3%; Slope HS (Hill–Slope) [3]: 0 |
| CCCCC[C@H](O)[C@H](O)/C=C/C=C/C=C\C=C\[C@@H](O)CCCC(=O)O [LXB4] |  |  |  |  |  |  |  |  |  |  |  | -2 | 1 | EC50 [4]: 5000 pM; Single comp. score Rel Eff. [4]: -2 |
| COc1ccc2cc([C@H](C)C(=O)O)ccc2c1 [Naproxen, reference compound] |  |  |  |  |  |  |  |  |  |  |  |  |  | % relative to carageenan-induced level ([5]; 4h): 118%; % relative to carageenan-induced level ([5]; 8h): 40%; % relative to carageenan-induced level ([5]; 24h): 55%; % reduction relative to carageenan-induced level ([5]; 48h): 60%; % relative to carageenan-induced level ([5]; 48h): 160%; % reduction relative to carageenan-induced level ([5]; 72h): 450%; % relative to carageenan-induced level ([5]; 72h): 550%; effect on inflammatory response (paw swelling), in words ([5]; (R)-6, (R)-17 2 μg/kg ip, Naproxen 50 mg/kg po): inflammation persisted after 72 h; Paw swelling Index: Mean ([5]; Time 4h, (R)-6, (R)-17 2 μg/kg ip, Naproxen 50 mg/kg po, 1% carrageenan): 0.08; Paw swelling Index: Mean ([5]; Time 8h, (R)-6, (R)-17 2 μg/kg ip, Naproxen 50 mg/kg po): 0.16; Paw swelling Index: Mean ([5]; Time 24h, (R)-6, (R)-17 2 μg/kg ip, Naproxen 50 mg/kg po): 0.48; Paw swelling Index: Mean ([5]; Time 48h, (R)-6, (R)-17 2 μg/kg ip, Naproxen 50 mg/kg po): 0.65; Paw swelling Index: Mean ([5]; Time 72h, (R)-6, (R)-17 2 μg/kg ip, Naproxen 50 mg/kg po): 0.55 |
| CC/C=C\C[C@H](O)/C=C/C=C\C=C\C=C\[C@@H](O)[C@@H](O)C/C=C\CCC(=O)O [RvD1] |  |  |  |  |  |  |  |  |  |  |  | 1 | 10000 | Single comp. score Rel. Pot. [4]: 2 (x ≥ 5) |
| CC[C@@H](O)/C=C/C=C\C[C@@H](O)/C=C/C=C/C=C\[C@@H](O)CCCC(=O)O [RvE1] |  |  |  |  |  |  |  |  |  |  |  | 0 | 5000 | EC50 [4]: 1 pM; Single comp. score Rel Eff. [4]: -2; Single comp. score Rel. Pot. [4]: 2 (x ≥ 5) |
